# From paper PMC6102549, “Synthesis and Evaluation of C15 Triene Urushiol Derivatives as Potential Anticancer Agents and HDAC2 Inhibitor” (Molecules : A Journal of Synthetic Chemistry and Natural …, 2018)
# Experiments:
# [1] = system: LO2 cells; assay: MTT assay, toxic effect on normal liver cells LO2; format: cell-based; conditions: in vitro
# Experimental: (§1) As shown in Figure 1 and Table 1, compounds 1–16 were evaluated for their inhibitory effects on the proliferation of HepG2 and LO2 cells by MTT assay. […] It provided the experimental basis for the subsequent synthesis of attenuating and improving urushiol derivatives.
# (§2) Detection of cell proliferation by MTT
# (§3) MTT assay was used to determine the inhibitory effect of the sample on the proliferation of HepG2 cells. The tumor cells of logarithmic growth stage were inoculated with 3.5 * 103 / well in 96 well culture plate. 0.2 ml/pore system was cultured for 72 h with different concentrations of samples. Then 20μL(final concentration 0.5 mg / mL) of MTT were added to each pore for 4 h. The supernatant was carefully adsorbed, DMSO 0.15 mL was added to each pore, and oscillatory mixing was carried out. The absorbance (A) value at 490 nm wavelength was measured by enzyme labeling instrument. The inhibition rate of cell proliferation was calculated as follows: [(A value of negative control group-A value of blank group)-(A value of experimental group A value of blank group)] / (negative pair group A-A value of blank group) × 100.Statistical method. The statistical analysis was carried out by SPSS 17.0 statistical software. The measured data were described by x ±s, and the mean of the two samples was compared with t test (P < 0. 05).
# (§4) Materials and methods: Main reagents and instruments […]
# (§5) Full-range rainbow […]
# (§6) The HepG2 cells were cultured in a saturated humidity incubator with 90% […]
# (§7) Jiangsu Kaiji Biotechnology Co., Ltd. Main reagents and consumables Cell culture bottle […]
# (§8) Cell proliferation measured by MTT
# (§9) 1) the cells were digested and counted, the cell suspension was prepared by 3 x 10^4 /ml, and 100 micron L cell suspension was added to each hole in the 96 hole cell culture plate.
# (§10) 2) 96 hole cell culture plate was placed in 37, 5%, CO2 culture box for 24 hours.
# (§11) 3) use the medium to dilute the drug to the desired working fluid concentration, add 100 micron l per hole to the corresponding drug medium, and establish a negative control group and a positive control group (paclitaxel, 20ug/ml).
# (§12) 4) 96 hole cell culture plate was placed at 37 ℃ and 5% CO2 incubator for 72 hours.
# (§13) 5) 96 hole board for MTT staining, lambda =490nm, OD value determination; a. 20 μL MTT (5mg/ml) per hole was added to the culture box for 4 hours. b. discarding the supernatant, adding 150 μL DMSO for each hole, and gently mixing the […]
# (§14) c. lambda =490nm, ELISA od readout per hole, the inhibition rate was calculated.
# (§15) 6) calculate the inhibition rate of each group.The inhibition rate (%) = (negative control group OD value of experimental group / OD) negative control group OD x 100% […]
# (§16) 7 check the machine and record the red fluorescence at the excitation wavelength of 488nm.
# (§17) Detection of apoptosis by Annexin-V FITC/PI double staining
# (§18) (1) inoculate the logarithmic growth cells into the six-hole plate. The next day, after the cells are adhered to the wall, according to the group . The culture medium containing medicine was added and the negative control group was set up at the same time
# (§19) (2) after 72 hours of treatment, the cells were digested with 0.25% trypsin (excluding […]
# (§20) (3) 5 × 10 ~ 5 cells were collected by PBS washing cells twice (centrifugation 2000rpm for 5
# [2] = system: HepG2 cells; assay: MTT assay, inhibition of proliferation of HepG2 cells; format: cell-based, human; conditions: for IC50: in vitro, 72 h
# Experimental: as §1, §2, §3, §4, §5, §6, §7, §8, §9, §10, §11, §12, §13, §14, §15, §16, §17, §18, §19, §20
# [3] = system: HepG2 cells; assay: JC-1 staining assay of mitochondrial membrane potential; format: cell-based, human
# Experimental: Detection of mitochondrial membrane potential by JC-1 staining
# 1inoculate the logarithmic growth cell digestion into the six-hole plate, the next day, after the cells adhered to the wall, according to the group set up to add the corresponding drug medium, and set up a negative control group at the same time;
# (2) the cell concentration was collected and adjusted to 1 × 10^6 / ml by PBS washing (centrifugation 2000rpm for 5 min);
# (3) 100 μ L 10 × Incubation Buffer and 900 μ L sterilized deionized water were diluted to 1 × Incubation buffer, and then preheated to 37 ℃;
# (4) 500 μ L 1 × Incubation buffer was absorbed and 1 μ L JC-1 was added to prepare JC-1 […]
# (5) the cells were incubated in a incubator containing CO 2 at 37 ℃ for 15 ~ 20 min with […]
# (6) the cells were collected by centrifugation at room temperature for 5 min and washed twice with 1 × Incubation Buffer.
# (7) resuspension cells of 500 μ L 1 × Incubation Buffer;
# (8) on the computer test. […]
# [4] = system: HepG2 cells; assay: Annexin-V FITC/PI double staining for apoptosis (flow cytometry); format: cell-based, human; conditions: 72 h
# Experimental: After treating HepG2 cells with three concentrations of compound 1 for 72 h, flow cytometry was used to detect the apoptosis rate changes. […]
# as §17
# (1) inoculate the logarithmic growth cells into the six-hole plate. The next day, after the cells are adhered to the wall, according to the group . […]
# as §19
# (§21) (3) 5 × 10 ~ 5 cells were collected by PBS washing cells twice (centrifugation 2000rpm for 5 […]
# (4) adding 500 μ L Binding Buffer suspension cells;
# (5) After adding 5 μ L Annexin V-FITC, adding 5 μ L Pi, mixing;
# (6) at room temperature, no light, the reaction time was 5 ~ 15 min, and the apoptosis was detected by flow cytometry. […]
# [5] = system: HepG2 cells; assay: PI single staining assay for cell cycle (flow cytometry); format: cell-based, human; conditions: for G1 (%) / G2 (%) / S (%): 72 h
# Experimental: After the cells were tested with three different doses of Compound 1 (1, 3, and 12 μM), they were collected and detected by flow cytometry. […] Compared with the blank control group, the proportion of cells in G0/G1 phase of each dose of compound 1 increased gradually, but both the percentage of S stage cells and the proportion of cells in G2/M stage decreased to some extent. […]
# Detection of cell cycle by PI single staining
# 1, the logarithmic growth phase were digested and inoculated into six well plates, the next day, after the cells adhered, according to the group set to join the corresponding drug containing medium, and the establishment of the negative control group; 2, after the action of 72h, the cells were digested with 0.25% pancreatin (not containing […]
# 3, 5 x 10^5 cells were collected by PBS scrubbing cells (centrifuge 2000rpm, 5min).
# 4, the single cell suspension prepared was fixed for 2 hours (or overnight) with a volume fraction of 70% ethanol, and stored at 4 ℃. Before washing, PBS was used to remove the fixative solution (if needed, cell suspension was filtered through 200 mesh mesh).
# 5 plus 100 mu L RNase A 37 ℃ water bath 30min;
# 6, adding 400 L PI dyeing and avoiding light 30min at 4 ℃.
# 7 check the machine and record the red fluorescence at the excitation wavelength of 488nm. […]
# [6] = system: HepG2 cells; assay: Calcium content detection (Fluo-3 probe, flow cytometry); format: cell-based, human; conditions: for Mean (calcium, Fluo-3 fluorescence): 72 h
# Experimental: Calcium content detection
# (1) inoculate the logarithmic growth cells into the six-hole plate. The next day, after the cells are adhered to the wall, according to the group . The culture medium containing medicine was added and the negative control group was set up at the same time.
# as §19, §21
# (4) adding 5 μ M Fluo-3 probe and mixing it to 37 degrees to avoid light for 30 min;
# [7] = system: HDAC2; assay: Western blot of HDAC2 expression in HepG2 cells; format: cell-based, human; conditions: versus hepatoma cell group, p < 0.05
# From the text: The total protein was extracted from the logarithmic growth phase of hepatoma HepG2 cell line, and the expression of HDAC2 was detected by Western blot method with urushiol derivative compound 1(see Figure 3). […] The mechanism was probably related to the inhibition of HDAC2 expression.
# as §2, §3, §4
# [8] = system: HepG2 cells; assay: Morphological observation of HepG2 cells; format: cell-based, human; conditions: 6.25, 25 and 50 μM
# Experimental: The mortality rate of HepG2 cells was increasing faster on higher concentration of compound 1. The inhibition of cell proliferation strengthened over time. […] The cells became round, the volume became smaller and the refraction decreased. When the cells were treated with high concentration of compound 1, the cells were suspended and shed. The cells no longer adhered to the wall. They gradually became round, and the membrane ruptured, shrank and finally lost vitality.
structure (smiles),measurement,setting,value
C#CCOc1c(O)cccc1CCCCCCC/C=C\C/C=C/C=C\C [Compound 3],IC50,"[1]; Homo sapiens, L02, 72 h",> 200 µM
same,IC50,"[2]; Homo sapiens, HepG2, 72 h",> 200 µM
C/C=C\C=C\C/C=C\CCCCCCCc1ccc2c(C)cc(=O)oc2c1OB(O)c1ccnc(F)c1 [Compound 16],IC50,"[1]; Homo sapiens, L02, 72 h",> 200 µM
same,IC50,"[2]; Homo sapiens, HepG2, 72 h",151 µM
C/C=C\C=C\C/C=C\CCCCCCCc1cccc2c1OC(C)(C(C)Br)O2 (stereo not drawn) [Compound 7],IC50,"[1]; Homo sapiens, L02, 72 h",> 200 µM
same,IC50,"[2]; Homo sapiens, HepG2, 72 h",89.7 µM
C/C=C\C=C\C/C=C\CCCCCCCc1cccc2c1OB(C(=O)C(F)(F)C(F)(F)F)O2 [Compound 2],IC50,"[1]; Homo sapiens, L02, 72 h",> 200 µM
same,IC50,"[2]; Homo sapiens, HepG2, 72 h",198 µM
C/C=C\C=C\C/C=C\CCCCCCCc1cccc2c1OB(c1ccccc1)O2 [Compound 4],IC50,"[1]; Homo sapiens, L02, 72 h",181 µM
same,inhibitory activity on HepG2 cells proliferation (in words),[2],strong
same,IC50,[2],15.3 µM
"C/C=C\C=C\C/C=C\CCCCCCCc1ccc2c(C)cc(=O)oc2c1O [Compound 10, 8-hydroxy-4-methyl-7-((8Z,11E,13Z)-pentadeca-8,11,13-trien-1-yl)-2H-chro men-2-one]",IC50,"[1]; Homo sapiens, L02, 72 h",180 µM
same,IC50,[1]; 72 h,198 µM
same,IC50,"[2]; Homo sapiens, HepG2, 72 h",~28 µM
same,IC50,[2],28.8 µM
C/C=C\C=C\C/C=C\CCCCCCCc1ccc2c(C)cc(=O)oc2c1OB(O)c1ccncc1 [Compound 15],IC50,"[1]; Homo sapiens, L02, 72 h",> 200 µM
same,IC50,"[2]; Homo sapiens, HepG2, 72 h",67 µM
C/C=C\C=C\C/C=C\CCCCCCCc1cccc2c1OB(c1ccncc1)O2 [Compound 5],IC50,"[1]; Homo sapiens, L02, 72 h",> 200 µM
same,IC50,"[2]; Homo sapiens, HepG2, 72 h",180 µM
C/C=C\C=C\C/C=C\CCCCCCCc1ccc2c(C)cc(=O)oc2c1OB(O)c1ccccc1 [Compound 14],IC50,"[1]; Homo sapiens, L02, 72 h",> 200 µM
same,IC50,"[2]; Homo sapiens, HepG2, 72 h",78.7 µM
C/C=C\C=C\C/C=C\CCCCCCCc1cccc(O)c1O[Si](CCCS)(OC)OC [Compound 1],UR % Gated,"[3]; HepG2, JC-1, 12 μM",46.18%
same,Green Fluorescence (%) (LR % gated),"[3]; HepG2, JC-1, 1 μm",16.72%
same,Green Fluorescence (%) (LR % gated),"[3]; HepG2, JC-1, 3 μm",28.14%
same,Green Fluorescence (%) (LR % gated),"[3]; HepG2, JC-1, 12 μm",53.82%
same,IC50,"[1]; Homo sapiens, L02, 72 h",150 µM
same,IC50,[1]; 72 h,151 µM
same,Apoptosis (%),"[4]; HepG2, 1 μm",15.73%
same,LL (%),"[4]; HepG2, 1 μm",82.71%
same,LR (%),"[4]; HepG2, 1 μm",9.38%
same,UL (%),"[4]; HepG2, 1 μm",1.56%
same,UR (%),"[4]; HepG2, 1 μm",6.35%
same,Apoptosis (%),"[4]; HepG2, 3 μm",32.60%
same,LL (%),"[4]; HepG2, 3 μm",67.33%
same,LR (%),"[4]; HepG2, 3 μm",16.42%
same,UL (%),"[4]; HepG2, 3 μm",0.07%
same,UR (%),"[4]; HepG2, 3 μm",16.18%
same,Apoptosis (%),"[4]; HepG2, 12 μm",47.87%
same,LL (%),"[4]; HepG2, 12 μm",48.91%
same,LR (%),"[4]; HepG2, 12 μm",37.68%
same,UL (%),"[4]; HepG2, 12 μm",3.24%
same,UR (%),"[4]; HepG2, 12 μm",10.19%
same,inhibitory activity on HepG2 cells proliferation (in words),[2],strong
same,IC50,"[2]; Homo sapiens, HepG2, 72 h",7.89 µM
same,IC50,[2],7.88 µM
same,G1 (%),"[5]; HepG2, 1 μM",54.48%
same,G2 (%),"[5]; HepG2, 1 μM",15.79%
same,S (%),"[5]; HepG2, 1 μM",29.72%
same,G1 (%),"[5]; HepG2, 3 μM",60.17%
same,G2 (%),"[5]; HepG2, 3 μM",13.64%
same,S (%),"[5]; HepG2, 3 μM",26.19%
same,G1 (%),"[5]; HepG2, 12 μM",65.80%
same,G2 (%),"[5]; HepG2, 12 μM",13.79%
same,S (%),"[5]; HepG2, 12 μM",20.40%
same,effect on cell cycle (in words),"[5]; HepG2, 1, 3 and 12 μM",block cells in G0/G1 phase
same,"Mean (calcium, Fluo-3 fluorescence)","[6]; HepG2, 1 μm",65.01
same,"Mean (calcium, Fluo-3 fluorescence)","[6]; HepG2, 3 μm",94.39
same,"Mean (calcium, Fluo-3 fluorescence)","[6]; HepG2, 12 μm",136.80
same,intracellular calcium concentration (in words),"[6]; HepG2, compared with blank control group",increased
same,expression of HDAC2 protein (in words),[7],significantly lower
same,proliferation of HepG2 cells by morphological observation (in words),[8],gradually inhibited
C/C=C\C=C\C/C=C\CCCCCCCc1cccc2c1OB(c1ccnc(F)c1)O2 [Compound 6],IC50,"[1]; Homo sapiens, L02, 72 h",> 200 µM
same,IC50,"[2]; Homo sapiens, HepG2, 72 h",> 200 µM
C/C=C\C=C\C/C=C\CCCCCCCc1cccc(O)c1NS(C)(=O)=O [Compound 9],IC50,"[1]; Homo sapiens, L02, 72 h",121 µM
same,inhibitory activity on HepG2 cells proliferation (in words),[2],strong
same,IC50,"[2]; Homo sapiens, HepG2, 72 h",15 µM
